In patent US8859021B2, “Skin appearance through gene manipulation” (Sytheon, priority 2007, dated 2014):

System: EpiDerm tissues
Details: retinol 10 μg/ml, Sytenol A 5 μg/ml, 2 days, vs 0.1% DMSO control

## C=C[C@@](C)(/C=C/c1ccc(O)cc1)CCC=C(C)C [Sytenol A, bakuchiol]
  Fold Change, Insulin-like growth factor-binding protein 6 precursor (IGBP-6): +4.03 fold
  Fold Change, JUP Catenin gamma (Junction plakoglobin) (Table 8): +3.83 fold
  Fold Change, JUP Catenin gamma (Table 9): +3.83 fold
  Fold Change, KIF1C Kinesin-like protein KIF1C: +2.03 fold
  Fold Change, KIF2A Kinesin-like protein KIF2A: No effect
  Fold Change, KIF4A Chromosome-associated kinesin KIF4A: +2.15 fold
  Fold Change, KIF13A Kinsein-like protein KIF13A: No effect
  Fold Change, KIF13B Kinsein-like protein KIF13B: +3.53 fold
  Fold Change, KIF17 Kinesin-like protein KIF17: +2.44 fold
  Fold Change, KIF26A Kinesin family member 26A: No effect
  Fold Change, KIFC2 Kinesin-like protein KIFC2: No effect
  Fold Change, KRT2 Keratin-2; Cytokeratin-2e (CK 2e): −3.53 fold
  Fold Change, KRT5 Keratin-5, Cytokeratin-5 (CK-5): +2.81 fold
  Fold Change, KRT7 Keratin-7; Cytokeratin-7 (CK-7): +13.75 fold
  Fold Change, KRT13 Keratin-13; Cytokeratin-13 (CK-13): +16.34 fold
  Fold Change, KRT15 Keratin-15; Cytokeratin-15 (CK-15): +11.29 fold
  Fold Change, KRT19 Keratin-19; Cytokeratin-19 (CK-19): +20.67 fold
  Fold Change, LAMA3 Laminin subunit alpha-3 precursor (Epiligrin 170 kDa subunit): +11.03 fold
  Fold Change, LAMC2 Laminin subunit gamma-2 precursor (Laminin B2t chain): +7.84 fold
  Fold Change, LRAT Lecithin retinol acyltransferase: +82.23 fold
  Fold Change, LRRC49 Tubulin polyglutamylase complex subunit 4 (PGs4): −3.47 fold
  Fold Change, MC1R, TUBB3 Tubulin beta-3-chain (Tubulin beta-III): +3.23 fold
  Fold Change, MMP9 Matrix metalloprotease-9-precursor: +12.61 fold
  Fold Change, MMP15 Matrix metalloprotease-15 precursor: +4.19 fold
  Fold Change, MMP21 Matrix metalloprotease-21 precursor: −7.89 fold
  Fold Change, MMP23A, MMP23B Matrix metalloprotease-23: −8.83 fold
  Fold Change, MMP26 Matrix metalloprotease-26-precursor (MMP-26): +2.91 fold
  Fold Change, MMP28 Matrix metalloprotease-28-precursor: +15.91 fold
  Fold Change, MYH14 Myosin-14: +5.72 fold
  Fold Change, MYL2 Myosin regulatory light chain 2: −2.50 fold
  Fold Change, MYO1F Myosin-lf (Myosin-le): +3.44 fold
  Fold Change, MYO6 Myosin-VI: +2.38 fold
  Fold Change, Mast/stem cell growth factor receptor precursor (SCFR) (Proto-oncogene tyrosine-protein kinase kit (c-kit)): −2.31 fold
  Fold Change, NDST4 N-heparan sulfate sulfotransferase 4: +4.43 fold
  Fold Change, NEIL2 DNA glycosylase/AP lyase Neil2: +4.17 fold
  Fold Change, NF-kappa-B-activating protein: −2.32 fold
  Fold Change, NGRN, TTLL13 Tubulin tyrosine ligase-like family, member 13: +12.65 fold
  Fold Change, NT5C1B, RDH14 Retinol dehydrogenase 14 (Alcohol dehydrogenase PAN20): −3.57 fold
  Fold Change, Nuclear factor Kappa B p105 unit (NF-kappa-B) (DNA-binding factor KBF 1): −2.01 fold
  Fold Change, PARP2 Poly (ADP-ribose) polymerase 2: +1.46 fold
  Fold Change, PARP9 Poly (ADP-ribose) polymerase 9: +7.74 fold
  Fold Change, PARP12 Poly (ADP-ribose) polymerase 12: +6.05 fold
  Fold Change, PARP15 Poly (ADP-ribose) polymerase 15: No effect
  Fold Change, PCDH11X Procadherin-11: +10.15 fold
  Fold Change, PCDH18 Procadherin-18-precursor: No effect
  Fold Change, PCDH19 Procadherin-19-precursor: No effect
  Fold Change, PCDHB1 Procadherin-beta-1-precursor: +2.00 fold
  Fold Change, PCDHB2 Procadherin-beta-2-precursor: +18.74 fold
  Fold Change, PCDHB3 Procadherin-beta-3-precursor: No effect
  Fold Change, PCDHB4 Procadherin-beta-4-precursor: −7.81 fold
  Fold Change, PFN4 Profilin-4 (Profilin IV): No effect
  Fold Change, PI3 Elastase-specific inhibitor: +2.72 fold
  Fold Change, Protein Kinase B (RAC-alpha serine/threonine-protein kinase) (RAC-PK-alpha): −3.47 fold
  Fold Change, RARRES1 Retinoic acid receptor responder protein 1: +12.87 fold
  Fold Change, RBP1 Cellular Retinol-binding protein-I: +4.17 fold
  Fold Change, RBP2 Cellular Retinol-binding protein-II: +4.12 fold
  Fold Change, RBP7 Cellular retinoic acid-binding protein 4: +3.09 fold
  Fold Change, RETSAT All-trans-retinol 13,14-reductase precursor: −2.84 fold
  Fold Change, SELE E-selection precursor (Endothelial leukocyte adhesion molecule 1) (ELAM-1): No effect
  Fold Change, SERPINB1 Leukocyte elastase inhibitor: +6.09 fold
  Fold Change, SIR2-like protein1/NAD-dependent deacetylase sirtuin-1 (hSIRT1): −1.54 fold
  Fold Change, SIR2-like protein2/NAD-dependent deacetylase sirtuin-2: +1.52 fold
  Fold Change, SIR2-like protein7/NAD-dependent deacetylase sirtuin-7: +2.47 fold
  Fold Change, SRRM1 Serine/arginine repetitive matrix protein 1 (SR-related nuclear matrix protein 160 kDa) (SRm160): +3.13 fold
  Fold Change, TBCEL Tubulin-specific chaperone cofactor E-like protein (EL): No effect
  Fold Change, TTBK1 Tau-tubulin kinase 1: No effect
  Fold Change, TTLL1 Tubulin polyglutamylase complex subunit 3 (PGs3): +2.07 fold
  Fold Change, TUBB2B Tubulin beta-2B chain: −3.31 fold
  Laminins gene regulation (in words): up-regulate
